According to a melting point compilation (Tetko et al.; mined from patent text by program, amines drawn as free bases though some values may be those of a salt):

Row | Compound | melting point [°C]
1 | CS(=O)c1ccc2c(c1)C(=O)C1(CC1)O2 (stereo unspecified) | 87 to 90
2 | O=c1[nH]c2c(n3ccnc13)Cc1ccccc1-2 | 350
3 | CC1(CCCN2CC[C@H](CNC(=O)c3cc(Cl)c(N)c4c3OCC4)[C@H](O)C2)OCCO1 (relative stereo) | 118
4 | O=C1CCC(c2ccc3c(c2)C2(CC2)C(=O)N3)=NN1 | 256 to 257
5 | O=C1C(c2ccc(O)cc2)=C(Br)c2ccc(O)cc21 | 240
6 | O=c1ccc(C(F)(F)F)cn1Cc1ccccc1NCCCl | 93.5 to 95
7 | CC(C)NC(=O)c1cc2ncn(C)c2c(Cl)c1NC(=O)c1cc(C(F)(F)F)nn1-c1ncccc1Cl | 150 to 155
8 | CCN(CC)C(=O)c1ccc(OCCCl)cc1 | 80 to 81
9 | CC(C)Oc1ccc2c(c1)N(CCCN1CCC(CCO)CC1)c1cccc(S(C)(=O)=O)c1S2 | 50
10 | CNC(=O)Nc1cc2c(s1)CCCC2NC(=O)NC (stereo unspecified) | 233 to 234
11 | CCNC(=O)CCCNC(=O)CCCNC(=O)CCCNC(=O)CCCNC(=O)OC(C)(C)C | 196 to 197
12 | O=C(CCc1cccnc1)NCCCCC1CCN(C(=O)Nc2cccc3ccccc23)CC1 | 143 to 144
13 | CN(C)c1ccc(C=CC(=O)c2ccc3c(c2)CCC3)cc1 | 106 to 108
14 | Nc1nc2c(nc(C#Cc3ccc(C(F)(F)F)cc3)n2C2OC(CO)C(O)C2O)c(=O)[nH]1 (stereo unspecified) | > 240
15 | CC(C)C1CC(=O)Nc2nc(C#N)c3ncccc3c21 (stereo unspecified) | 220
16 | O=S1(=O)CC2(CCCCC2)[C@@H](O)[C@H](c2ccccc2)c2ccccc21 (relative stereo) | 99 to 100
17 | COCc1ncn2c1CN(C)C(=O)c1c(Cl)cccc1-2 | 143 to 144
18 | O=c1[nH]cnc2c(Br)sc(Br)c12 | > 250
19 | COC(=O)c1cc(N)c(N2CCCCC2)c(S(C)(=O)=O)c1 | 178 to 179
20 | Cc1cc(-c2nn(-c3cccc(C(F)(F)F)c3)ccc2=O)n(-c2ccccc2)n1 | 167 to 168

Row | Compound | melting point [°C]
21 | Fc1ccccc1-c1nc2cccnc2o1 | 119 to 120
22 | CN1C(=O)C(NC(=O)C(CC2CC2)C2(C(N)=O)CC=CC2)N=C(c2ccccc2)c2ccccc21 (stereo unspecified) | 238 to 240
23 | O=C(O)C1=CN(C2CC2)C(c2ccc3c(c2)OCO3)CC1=O (stereo unspecified) | 122 to 124
24 | c1ccc2nc(COc3cccc4[nH]ccc34)ccc2c1 | 143 to 144
25 | CC(=O)Nc1ccc(NC(=O)c2ccc(-c3[nH]nc4c3C(=O)c3c(NC(=O)NN5CCOCC5)cccc3-4)s2)cc1 | 253 to 254
26 | O=C1Cc2c([nH]c3ccc(I)cc23)-c2ncccc2N1 | > 330
27 | O=C1NCCC1=Cc1ccc(C2=NCCO2)cc1 | 258 to 262
28 | Cc1ccc([N+](=O)[O-])cc1Nc1nccc(-c2ccc(Cl)nc2)n1 | 210 to 212
29 | N#Cc1ccc(CN2CCc3ccc(C(=O)CCCC4CCN(Cc5ccccc5Cl)CC4)cc3CC2)cc1 | 118 to 119
30 | OCc1cnc2ccc(Cl)cc2c1O | > 300
31 | CCOc1ccc(C(O)(C(F)(F)F)C(F)(F)Cl)cc1 (stereo unspecified) | 84 to 86
32 | CCCCCc1cn(CCCC)c(=O)n1Cc1ccc(-c2ccccc2-c2nnn[nH]2)nc1 | 176 to 177
33 | COc1ccc(OC)c2[nH]ccc12 | 193 to 195
34 | CCc1ccc(-c2ccc(CCc3ccc(C)cc3)cc2)c(F)c1 | 65
35 | O=S(=O)(c1ccc(Cl)cc1)C(c1cc(F)ccc1F)c1cc(Cl)ncc1Cl (stereo unspecified) | 147 to 148
36 | COc1ccc(-c2c(Cl)c(CNC(C)(C)C)nc3sc4c(c23)CCN(Cc2ccccc2)C4)cc1OC | 134 to 135
37 | CCc1nnc(-c2ccc(OC)cc2)n1-c1cccc(C(F)(F)F)c1 | 140
38 | COc1ccc2c(c1)sc1nc(C=O)cn12 | 214 to 215
39 | CCCCCC(=O)OCC(CO)CCn1cnc2c(=O)[nH]c(N)nc21 (stereo unspecified) | 179 to 181
40 | COc1ccccc1CCl | 69.5 to 70.5

Row | Compound | melting point [°C]
41 | N#CNC(=S)Nc1ccc(C#N)cc1 | > 250
42 | CC(C)CCCC(C)C1CCC2C3CC=C4CC(I)CCC4(C)C3CCC12C (stereo unspecified) | 106
43 | CC(C)(C)OC(=O)N1CCC[C@@H](Nc2nccc(-c3c(-c4cccc(C#N)c4)nc4sccn34)n2)C1 | 108 to 110
44 | Cc1nccn1CC(C)C(=O)c1cn(C)c2ccccc12 (stereo unspecified) | 205 to 207
45 | COc1cccc(C23CCCC=C2C(=O)N(C)C(=O)C3)c1 (stereo unspecified) | 139 to 141
46 | Fc1ccc(C=Nc2c3c(nc4ccccc24)CCCC3)cc1 | 161 to 163
47 | CC(=O)C1CCC2C3CCC4CC(O)C(N5CCOC(C)(C)C5)CC4(C)C3C(O)CC12C (stereo unspecified) | 182 to 185
48 | O=S(=O)(Nc1ccc(Oc2ccc3ncccc3c2)cc1)c1cccc(C(F)(F)F)c1 | 142 to 143
49 | CCCCCCOc1ccc(NS(=O)(=O)c2ccc(N3CCNC3=O)cc2)cc1 | 225 to 226
50 | COc1cccc(OC2COc3ccc(O)cc3C2O)c1 (stereo unspecified) | 187 to 189
51 | COc1ccc(C2=NN(C3CCN(c4ccc([N+](=O)[O-])cc4)CC3)C(=O)[C@@H]3CC=CC[C@H]23)cc1OC | 196 to 197
52 | C=C1CCC(C2OC(=O)NC2=O)CC1 (stereo unspecified) | 63 to 64
53 | Cc1cc(F)ccc1-c1nc(N[C@@H](C)CO)nc2c1ccc(=O)n2-c1c(F)cccc1F | 90 to 95
54 | O=C1N[C@H](Cc2ccc(C(F)(F)F)cc2)[C@H](c2ccncc2)O1 (racemic) | 212 to 213
55 | COc1ccc(NC(=O)O[C@H]2COC(c3ccccc3)=N[C@@H]2c2ccccc2)cc1 (racemic) | 140
56 | N#CN=CNc1nc(OCc2ccc(F)cc2)ncc1F | 148 to 149
57 | COc1ccc2c(c1)C=C(/C=C/C=C/C=C/C(=O)O)C(C)(C)O2 | 154 to 156
58 | CCN(CC)C(=O)n1cnc(SCC2CC2)n1 | 51 to 52

The remaining lines, values ahead:

Row | melting point [°C] | Compound
59 | 195 | CCOC(=O)C(C#N)C1NC(=O)c2sccc2-n2cccc21 (stereo unspecified)
60 | 149 to 151 | CCOC(=O)C(C(=O)OCC)=C1NC(=O)N(Cc2ccccc2)C1=O
61 | 181 to 182 | NC(=O)c1c(Cl)c(-c2ccccc2)n2c1CN(C(=O)CCC1CCCCC1)CC2
62 | 82 | O=C(O)CCNc1ccc(CNC(=O)C2Cc3ccccc3N2S(=O)(=O)c2ccc(-c3cccc(C(F)(F)F)c3)cc2)cc1 (stereo unspecified)
63 | 186 to 190 | Cc1nc2cccc(OCC(C)(C)NC(=O)C3CCC3)c2c(N)c1C(=O)O
64 | 134 to 135 | CNC(=O)N(Cc1ccc(OCCc2nc(-c3ccccc3)oc2C)cc1)OC(=O)OC
65 | 180 to 181 | O=C(NCC(C(=O)O)C(F)(F)F)Nc1ccccc1 (stereo unspecified)
66 | 216 to 218 | CCOC(=O)CNC(=O)c1cc(C(=O)c2ccccc2Cl)c(N)s1
67 | 202 to 204 | CC1(C)CCSc2cc(C(=O)O)ccc21
68 | 114 | Cc1ccnc2ccc(C(=O)c3ccc(Cl)cc3)cc12
69 | 164 to 166 | CC(O)(C(=O)Nc1ccc(S(=O)(=O)c2ccccc2)cc1)C(F)(F)F (stereo unspecified)
70 | 206 to 209 | CC(C(O)c1ccc2c(c1)CCCS2)N1CCN(C(=O)C=Cc2ccccc2Cl)CC1 (stereo unspecified)
71 | 85 to 89 | O=[N+]([O-])c1ccccc1N1CCc2cc(Cl)ccc21
72 | 121 to 122 | CCOC(=O)C1Cc2sc(N)c(C(=O)c3ccccc3Cl)c2C1 (stereo unspecified)
73 | 145 | CC(=O)Oc1ccc(-c2c(C)c3ccc(OC(C)=O)cc3oc2=O)c(OC(C)=O)c1
74 | 79 to 80 | CCSc1cc2ccccc2c(=O)n1Cc1ccccc1
75 | 205 to 207 | CCOC(=O)C1=C(C)NC(C)=C(C(=O)OCC)C1c1ccccc1/C=C(\C)C(=O)O
76 | 198 to 200 | COc1c(N)cc(-c2c3ccccc3c(Br)c3sc(C)c(C)c23)cc1Br
77 | 109 to 110 | Cc1ccc(I)cc1Cc1ccc(-c2ccc(F)cc2)s1
78 | 69 to 70 | CCOC(=O)COc1cc2cc(C(O)CC)sc2c(Cl)c1Cl (stereo unspecified)
79 | 129 to 130 | CCCCOc1ccccc1C=CC(=O)c1ccc(OC)c(OC)c1OC
80 | 209 to 210 | O=C(O)CC1CCc2[nH]c3ccccc3c2C1 (stereo unspecified)

Row | melting point [°C] | Compound
81 | 118 to 119 | O=C(O)C1Cc2ccc(OCc3ccccc3)cc2O1 (stereo unspecified)
82 | 215 to 216 | CC(=O)Nc1ccc(OC(C)=O)c2cnsc12
83 | 106 to 108 | CNC(=O)OC(Cn1ccnc1)c1ccc(Cl)cc1Cl (stereo unspecified)
84 | 90 | CCOC(=O)c1cc(N2C(=O)C3=C(CCCC3)C2=O)ccc1O
85 | 120 to 121 | CC1(C)Oc2c(ccc3ccccc23)C2OC21 (stereo unspecified)
86 | 113 to 116 | CCCC[C@H](NC(=O)[C@H](CC(C)C)NC(=O)c1coc2ccccc12)C(=O)CSCc1ccco1
87 | 82 to 84 | Clc1ccc(Cl)c(Oc2cccc(Cl)n2)c1
88 | 141 to 142 | CC(=O)Oc1cc2c(c3ccccc13)N(C(C)=O)c1ccccc1S2
89 | 105 to 107 | Nc1nc2ccccc2c2c1ncn2CCCCNC(=O)c1cccc(Oc2ccccc2)c1
90 | 179 to 181 | Cc1ccc(C(=O)c2cccc(S)n2)cc1
91 | 48 to 52 | Nc1cccc(Oc2ccc(C(=O)c3cccc(N)c3)cc2)c1
92 | 193 to 194 | CCCC(=O)c1ccc(C(CCC)CC(=O)Nc2cc(C(N)=O)ccc2C(C)(C)C)c(OC)c1 (stereo unspecified)
93 | 77 to 78 | Cc1cc(C(=O)C(=O)c2ccc(OC(F)F)cc2)ccc1F
94 | 138 to 140 | Cn1c(-c2ccccc2)c(CCC(=O)O)c2ccccc2c1=O
95 | 80 to 82 | CC(C)(C)OC(=O)CC[C@H](NC(=O)c1ccc(NCc2ccccc2)c(F)c1)C(=O)OC(C)(C)C
96 | 50 to 70 | CC(=O)OCC(=O)N(c1c(C)ccc2ccccc12)C1CCOC1=O (stereo unspecified)
97 | 149 to 152 | Cc1ncc(-c2ccccc2)c(C(=O)N(C)Cc2cc(C(F)(F)F)cc(C(F)(F)F)c2)n1
98 | 142 to 143 | CC(CCN1C(=O)c2ccccc2C1=O)Cc1ccc(C(=O)CCC(=O)O)cc1 (stereo unspecified)
99 | 70 to 71 | Cc1oc(-c2ccccc2)nc1COc1ccc(CCCO)cc1
100 | 134 to 136 | CCOC(=O)C1=C(Cl)C(OCC)=NS1(=O)=O
101 | 126 to 144 | CCOC(=O)/C(=N\OCCN)c1csc(NC(c2ccccc2)(c2ccccc2)c2ccccc2)n1
